Our source for the GI50 and TGI values is PubChem BioAssay (NCI).

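Dose response: 5 concentrations. Exposure: 48 h. Format: 96-well plates. Endpoint: linear interpolation; highest concentration if not reached. Abbreviation: GI50, concentration required for 50% inhibition of growth. TGI is the concentration that stops growth completely.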 Where only a bound is given, the exact number is not on record here.

Common to all, as to assay: NCI anticancer screen, dose series, 48 h
Test [1] concerns CAKI-1 renal.
The subject of test [2] is SK-OV-3 ovarian.
Test [3] has as its system NCI-H460 lung.
For test [4], the system named is IGROV1 ovarian.
Test [5] concerns K-562 leukemia.
Test [6] has as its system RPMI-8226 leukemia.
For test [7], the system named is UO-31 renal.
Test [8] relates to MDA-MB-435.
The test system of test [9] is M14 melanoma.
The test system of test [10] is NCI-H226 lung.

Take `Cc1ccc(-c2nc(N3CCCNCC3)c3oc(-c4ccc(C)cc4)nc3n2)cc1`: the GI50 was 1.56 µM in test [1]; 17.8 µM in test [2]; 1.89 µM in test [3]; 1.62 µM in [4]; 0.946 µM in [5]; 1.89 µM in test [6]. For the same molecule, the figures for the GI50 in [7], in test [8] and in test [9] were 1.38 µM, 1.78 µM and 1.85 µM, respectively. In addition, the TGI was 3.02 µM in [1]; 31.6 µM in test [2]; 3.43 µM in test [3]; 3.19 µM in [4]; 2.68 µM in test [5]; 4.22 µM in test [6]. For the same molecule, the TGI turned out to be 2.68 µM in [7], 3.17 µM in test [8] and 3.55 µM in test [9].

As to `C[C@H]1C(=O)CC[C@]2(C)CCC(C(C)(C)O)CC12O` (stereo partly specified), the TGI in [1], in test [2], in [3], in test [4], in test [5] and in [6] was greater than 100 µM each time. For the same molecule, the TGI in [7], in test [9] and in test [10] was greater than 100 µM throughout.

For `CN1C(Cl)=NS(=O)(=O)c2ccccc21`, the TGI in test [1] was 36.6 µM; in [2], greater than 100 µM; in [3], greater than 100 µM; in test [4], greater than 100 µM; in [5] it was greater than 100 µM; in test [7], greater than 100 µM. Further, the TGI in test [8], in test [9] and in test [10] was greater than 100 µM in each case.

Turning to `CN(C)CCN1C(=O)c2cccc3cccc(c23)C1=O`, the GI50 in test [1] is 5.13 µM; in test [2] it was 24.5 µM; in [3], 8.26 µM; in test [5] it was 9.68 µM; in test [6] it was 16.6 µM; in test [7] it was 11 µM. For the same molecule, the GI50 was greater than 25 µM in test [8], greater than 25 µM in test [9] and 12.2 µM in test [10]. Further, the TGI in test [1] was 17.5 µM; in test [2], greater than 25 µM; in [3], greater than 25 µM; in test [5], greater than 25 µM; in test [6], greater than 25 µM; in test [7], greater than 25 µM. For the same molecule, the TGI in test [8], in test [9] and in test [10] was greater than 25 µM each time.

`COc1ccc2c(c1OC)C(=O)c1cnccc1C2=O`: the TGI in [1], in [2], in test [3], in test [4], in test [5] and in test [6] was greater than 100 µM throughout. Also, the TGI in test [7], in test [9] and in test [10] was greater than 100 µM in each case.

Turning to `O=C1OC(OCC#CCOC2OC(=O)C(Cl)=C2Cl)C(Cl)=C1Cl` (stereo unspecified), the TGI in [3] was determined as 58.9 µM; in test [4], 29.9 µM; in test [6], 11.9 µM; in test [7], 24 µM; in test [8] it was 27.2 µM; in test [9], 23.9 µM.

In the case of `CCN(CC)CCSCCCNc1c2ccc(Cl)cc2nc2ccc(OC)cc12`, the GI50 in [1] was 1.23 µM; in test [2] it was 1.56 µM; in test [3], 0.383 µM; in test [4], 1.56 µM; in test [6], 1.3 µM; in test [7], 1.27 µM. For the same molecule, the results for the GI50 in test [8] and in test [9] were 1.46 µM and 1.71 µM, respectively. Besides, the TGI in test [1] amounted to 3.45 µM; in test [2], 3.92 µM; in [3] it was 1.58 µM; in test [4] it was 4.74 µM; in test [6] it was 4.78 µM; in test [7] it was 3.29 µM. In addition, the TGI in [8] turned out to be 2.89 µM; in test [9], 3.46 µM.

In the case of `N#Cc1cc(S(=O)(=O)Nc2nc3ccccc3s2)c(SCc2ccccc2)cc1Cl`, the GI50 is 18.6 µM in [1]; 18.4 µM in test [3]; 18.1 µM in test [4]; 38.5 µM in test [5]; 27.9 µM in [6]; 17.8 µM in test [7]. Also, the GI50 was 23.8 µM in test [8], 18.9 µM in test [9] and 31 µM in [10]. In addition, the TGI in test [1] is 45 µM; in [3], greater than 100 µM; in test [4], 46.6 µM; in test [5], greater than 100 µM; in [6], greater than 100 µM; in test [7], 42.1 µM. Besides, the TGI in test [8] is 49.5 µM; in test [9] it was 37.1 µM; in test [10], 94.3 µM.

As for `O=C1NC(=O)C2C1N(Cc1ccccc1)C(=O)N2Cc1ccccc1` (stereo unspecified), the TGI in test [1], in [2], in [3], in [4], in [5] and in [6] was greater than 100 µM in each case. In addition, the TGI in test [7], in [9] and in [10] was greater than 100 µM in each case.

In the case of `Cc1cccc(Nc2cnc(N)nc2N)c1`, the TGI in test [1], in test [2], in [4], in test [5], in test [6] and in test [7] was greater than 100 µM each time. The TGI in test [8], in test [9] and in [10] was greater than 100 µM throughout.

Take `COc1ccc(Nc2c3ccccc3nc3[nH]c4ccccc4c23)cc1`: the GI50 is 14 µM in test [1]; 2.28 µM in [3]; 16.9 µM in test [4]; 7.17 µM in test [5]; 2.33 µM in [6]; 38.9 µM in [7]. Also, the GI50 in test [8] was 8.92 µM; in [10] it was 7.65 µM. Also, the TGI in test [1] is greater than 50 µM; in test [3], greater than 50 µM; in test [4], greater than 50 µM; in test [5], greater than 50 µM; in test [6] it was 33.4 µM; in test [7], greater than 50 µM. Further, the TGI in test [8] and in test [10] was greater than 50 µM each time.

As for `CNC(=O)OCC1C2=C(C(=O)C(C)=C(N)C2=O)N2CC3C(N3C)C12OC` (stereo unspecified), the TGI in test [1] was 32.7 µM; in test [2] it was greater than 100 µM; in test [3] it was 10 µM; in test [4], 26.1 µM; in test [5] it was greater than 100 µM; in [6], greater than 100 µM. The TGI in test [8], in [9] and in test [10] was greater than 100 µM throughout.
